{"source": "ChEMBL document CHEMBL5352486", "about": "“Design, synthesis, in vitro - In vivo biological evaluation of novel thiazolopyrimidine compounds as antileishmanial agent with PTR1 inhibition” (Eur J Med Chem, 2023)", "settings_in_all_cases": "time 21.0 day", "key": {"Leishmania infantum [1]": {"system": "Leishmania infantum", "experiment": "Antileishmanial activity against Leishmania infantum infected in BALB/c mouse model of cutaneous leishmaniasis assessed as footpad lesion development at 50 mg/kg/day, ID administered for 21 days and measured after 8 weeks by Giemsa staining based analysis (reference value: 3.13 +/- 0.03)", "type": "functional"}, "Leishmania infantum [2]": {"system": "Leishmania infantum", "experiment": "Antileishmanial activity against Leishmania infantum infected in BALB/c mouse model of visceral leishmaniasis assessed as footpad lesion development at 50 mg/kg/day, IM administered for 21 days and measured after 9 weeks by Giemsa staining based analysis (reference value: 22.75 +/- 0.71)", "type": "functional"}, "Leishmania infantum [3]": {"system": "Leishmania infantum", "experiment": "Antileishmanial activity against Leishmania infantum infected in BALB/c mouse model of cutaneous leishmaniasis assessed as footpad lesion development at 50 mg/kg/day, ID administered for 21 days and measured after 10 weeks by Giemsa staining based analysis (reference value: 3.40 +/- 0.03)", "type": "functional"}, "Leishmania infantum [4]": {"system": "Leishmania infantum", "experiment": "Antileishmanial activity against Leishmania infantum infected in BALB/c mouse model of cutaneous leishmaniasis assessed as parasite growth in foodpad at 50 mg/kg/day, ID administered for 21 days", "type": "functional, organism-based"}, "Leishmania infantum [5]": {"system": "Leishmania infantum", "experiment": "Antileishmanial activity against Leishmania infantum infected in BALB/c mouse model of cutaneous leishmaniasis assessed as parasite growth in liver at 50 mg/kg/day, ID administered for 21 days", "type": "functional, organism-based"}, "Leishmania infantum [6]": {"system": "Leishmania infantum", "experiment": "Antileishmanial activity against Leishmania infantum infected in BALB/c mouse model of visceral leishmaniasis assessed as footpad lesion development at 50 mg/kg/day, IM administered for 21 days and measured after 10 weeks by Giemsa staining based analysis (reference value: 21.58 +/- 0.74)", "type": "functional"}, "Leishmania infantum [7]": {"system": "Leishmania infantum", "experiment": "Antileishmanial activity against Leishmania infantum infected in BALB/c mouse model of visceral leishmaniasis assessed as footpad lesion development at 50 mg/kg/day, IM administered for 21 days and measured after 4 weeks by Giemsa staining based analysis (reference value: 28.01 +/- 0.65)", "type": "functional"}, "Leishmania infantum [8]": {"system": "Leishmania infantum", "experiment": "Antileishmanial activity against Leishmania infantum infected in BALB/c mouse model of visceral leishmaniasis assessed as footpad lesion development at 50 mg/kg/day, IM administered for 21 days and measured after 6 weeks by Giemsa staining based analysis (reference value: 25.81 +/- 0.84)", "type": "functional"}, "Leishmania infantum [9]": {"system": "Leishmania infantum", "experiment": "Antileishmanial activity against Leishmania infantum infected in BALB/c mouse model of cutaneous leishmaniasis assessed as footpad lesion development at 50 mg/kg/day, ID administered for 21 days and measured after 30 weeks by Giemsa staining based analysis (reference value: 4.92 +/- 0.01)", "type": "functional"}, "Leishmania infantum [10]": {"system": "Leishmania infantum", "experiment": "Antileishmanial activity against Leishmania infantum infected in BALB/c mouse model of cutaneous leishmaniasis assessed as footpad lesion development at 50 mg/kg/day, ID administered for 21 days and measured after 26 weeks by Giemsa staining based analysis (reference value: 4.91 +/- 0.01)", "type": "functional"}, "Leishmania infantum [11]": {"system": "Leishmania infantum", "experiment": "Antileishmanial activity against Leishmania infantum infected in BALB/c mouse model of cutaneous leishmaniasis assessed as footpad lesion development at 50 mg/kg/day, ID administered for 21 days and measured after 28 weeks by Giemsa staining based analysis (reference value: 4.92 +/- 0.01)", "type": "functional"}, "Leishmania infantum [12]": {"system": "Leishmania infantum", "experiment": "Antileishmanial activity against Leishmania infantum infected in BALB/c mouse model of cutaneous leishmaniasis assessed as parasite growth in spleen at 50 mg/kg/day, ID administered for 21 days", "type": "functional, organism-based"}, "Leishmania infantum [13]": {"system": "Leishmania infantum", "experiment": "Antileishmanial activity against Leishmania infantum infected in BALB/c mouse model of visceral leishmaniasis assessed as footpad lesion development at 50 mg/kg/day, IM administered for 21 days and measured after 5 weeks by Giemsa staining based analysis (reference value: 27.04 +/- 0.65)", "type": "functional"}, "Leishmania infantum [14]": {"system": "Leishmania infantum", "experiment": "Antileishmanial activity against Leishmania infantum infected in BALB/c mouse model of visceral leishmaniasis assessed as footpad lesion development at 50 mg/kg/day, IM administered for 21 days and measured after 1 week by Giemsa staining based analysis (reference value: 30.43 +/- 0.60)", "type": "functional"}, "Leishmania infantum [15]": {"system": "Leishmania infantum", "experiment": "Antileishmanial activity against Leishmania infantum infected in BALB/c mouse model of cutaneous leishmaniasis assessed as footpad lesion development at 50 mg/kg/day, ID administered for 21 days and measured after 20 weeks by Giemsa staining based analysis (reference value: 4.54 +/- 0.04)", "type": "functional"}, "Leishmania infantum [16]": {"system": "Leishmania infantum", "experiment": "Antileishmanial activity against Leishmania infantum infected in BALB/c mouse model of visceral leishmaniasis assessed as footpad lesion development at 50 mg/kg/day, IM administered for 21 days and measured after 7 weeks by Giemsa staining based analysis (reference value: 24.85 +/- 0.88)", "type": "functional"}, "Leishmania infantum [17]": {"system": "Leishmania infantum", "experiment": "Antileishmanial activity against Leishmania infantum infected in BALB/c mouse model of cutaneous leishmaniasis assessed as footpad lesion development at 50 mg/kg/day, ID administered for 21 days and measured after 14 weeks by Giemsa staining based analysis (reference value: 3.88 +/- 0.03)", "type": "functional"}, "Leishmania infantum [18]": {"system": "Leishmania infantum", "experiment": "Antileishmanial activity against Leishmania infantum infected in BALB/c mouse model of cutaneous leishmaniasis assessed as footpad lesion development at 50 mg/kg/day, ID administered for 21 days and measured after 12 weeks by Giemsa staining based analysis (reference value: 3.61 +/- 0.03)", "type": "functional"}, "Leishmania infantum [19]": {"system": "Leishmania infantum", "experiment": "Antileishmanial activity against Leishmania infantum infected in BALB/c mouse model of cutaneous leishmaniasis assessed as footpad lesion development at 50 mg/kg/day, ID administered for 21 days and measured after 4 weeks by Giemsa staining based analysis (reference value: 1.90 +/- 0.03)", "type": "functional"}, "Leishmania infantum [20]": {"system": "Leishmania infantum", "experiment": "Antileishmanial activity against Leishmania infantum infected in BALB/c mouse model of cutaneous leishmaniasis assessed as footpad lesion development at 50 mg/kg/day, ID administered for 21 days and measured after 6 weeks by Giemsa staining based analysis (reference value: 2.40 +/- 0.03)", "type": "functional"}, "Leishmania infantum [21]": {"system": "Leishmania infantum", "experiment": "Antileishmanial activity against Leishmania infantum infected in BALB/c mouse model of visceral leishmaniasis assessed as footpad lesion development at 50 mg/kg/day, IM administered for 21 days and measured after 2 weeks by Giemsa staining based analysis (reference value: 29.73 +/- 0.63)", "type": "functional"}, "Leishmania infantum [22]": {"system": "Leishmania infantum", "experiment": "Antileishmanial activity against Leishmania infantum infected in BALB/c mouse model of cutaneous leishmaniasis assessed as footpad lesion development at 50 mg/kg/day, ID administered for 21 days and measured after 24 weeks by Giemsa staining based analysis (reference value: 4.90 +/- 0.02)", "type": "functional"}, "Leishmania infantum [23]": {"system": "Leishmania infantum", "experiment": "Antileishmanial activity against Leishmania infantum infected in BALB/c mouse model of cutaneous leishmaniasis assessed as footpad lesion development at 50 mg/kg/day, ID administered for 21 days and measured after 18 weeks by Giemsa staining based analysis (reference value: 4.42 +/- 0.03)", "type": "functional"}, "Leishmania infantum [24]": {"system": "Leishmania infantum", "experiment": "Antileishmanial activity against Leishmania infantum infected in BALB/c mouse model of visceral leishmaniasis assessed as footpad lesion development at 50 mg/kg/day, IM administered for 21 days and measured after 11 weeks by Giemsa staining based analysis (reference value: 20.71 +/- 0.48)", "type": "functional"}, "Leishmania infantum [25]": {"system": "Leishmania infantum", "experiment": "Antileishmanial activity against Leishmania infantum infected in BALB/c mouse model of visceral leishmaniasis assessed as footpad lesion development at 50 mg/kg/day, IM administered for 21 days and measured after 3 weeks by Giemsa staining based analysis (reference value: 28.94 +/- 0.59)", "type": "functional"}, "Leishmania infantum [26]": {"system": "Leishmania infantum", "experiment": "Antileishmanial activity against Leishmania infantum infected in BALB/c mouse model of cutaneous leishmaniasis assessed as footpad lesion development at 50 mg/kg/day, ID administered for 21 days and measured after 32 weeks by Giemsa staining based analysis (reference value: 4.91 +/- 0.01)", "type": "functional"}, "Leishmania infantum [27]": {"system": "Leishmania infantum", "experiment": "Antileishmanial activity against Leishmania infantum infected in BALB/c mouse model of cutaneous leishmaniasis assessed as footpad lesion development at 50 mg/kg/day, ID administered for 21 days and measured after 16 weeks by Giemsa staining based analysis (reference value: 4.20 +/- 0.03)", "type": "functional"}, "Leishmania infantum [28]": {"system": "Leishmania infantum", "experiment": "Antileishmanial activity against Leishmania infantum infected in BALB/c mouse model of visceral leishmaniasis assessed as footpad lesion development at 50 mg/kg/day, IM administered for 21 days and measured after 8 weeks by Giemsa staining based analysis (reference value: 23.84 +/- 0.93)", "type": "functional"}, "Leishmania infantum [29]": {"system": "Leishmania infantum", "experiment": "Antileishmanial activity against Leishmania infantum infected in BALB/c mouse model of cutaneous leishmaniasis assessed as footpad lesion development at 50 mg/kg/day, ID administered for 21 days and measured after 22 weeks by Giemsa staining based analysis (reference value: 4.71 +/- 0.04)", "type": "functional"}, "Leishmania infantum [30]": {"system": "Leishmania infantum", "experiment": "Antileishmanial activity against Leishmania infantum infected in BALB/c mouse model of visceral leishmaniasis assessed as parasite growth in spleen at 50 mg/kg/day, IM administered for 21 days", "type": "functional, organism-based"}, "Leishmania infantum [31]": {"system": "Leishmania infantum", "experiment": "Antileishmanial activity against Leishmania infantum infected in BALB/c mouse model of visceral leishmaniasis assessed as parasite growth in liver at 50 mg/kg/day, IM administered for 21 days", "type": "functional, organism-based"}, "Leishmania infantum [32]": {"system": "Leishmania infantum", "experiment": "Antileishmanial activity against Leishmania infantum infected in BALB/c mouse model of cutaneous leishmaniasis assessed as footpad lesion development at 50 mg/kg/day, ID administered for 21 days and measured after 2 weeks by Giemsa staining based analysis (reference value: 1.61 +/- 0.03)", "type": "functional"}}, "note": "Active and inactive are the calls of the source. The calls are words filed in the database; no cut-off is given here."}
{"substance": "Meglumine antimoniate", "values": [{"measurement": "Activity", "setting": "Leishmania infantum [1]", "result": 3.09}, {"measurement": "Activity", "setting": "Leishmania infantum [2]", "result": 28.7}, {"measurement": "Activity", "setting": "Leishmania infantum [3]", "result": 3.4}, {"measurement": "Activity", "setting": "Leishmania infantum [4]", "result": "Active"}, {"measurement": "Activity", "setting": "Leishmania infantum [5]", "result": "Active"}, {"measurement": "Activity", "setting": "Leishmania infantum [6]", "result": 29.3}, {"measurement": "Activity", "setting": "Leishmania infantum [7]", "result": 27.4}, {"measurement": "Activity", "setting": "Leishmania infantum [8]", "result": 25.3}, {"measurement": "Activity", "setting": "Leishmania infantum [9]", "result": 2.16}, {"measurement": "Activity", "setting": "Leishmania infantum [10]", "result": 4.69}, {"measurement": "Activity", "setting": "Leishmania infantum [11]", "result": 3.49}, {"measurement": "Activity", "setting": "Leishmania infantum [12]", "result": "Active"}, {"measurement": "Activity", "setting": "Leishmania infantum [13]", "result": 26.3}, {"measurement": "Activity", "setting": "Leishmania infantum [14]", "result": 30.8}, {"measurement": "Activity", "setting": "Leishmania infantum [15]", "result": 4.53}, {"measurement": "Activity", "setting": "Leishmania infantum [16]", "result": 26.7}, {"measurement": "Activity", "setting": "Leishmania infantum [17]", "result": 3.84}, {"measurement": "Activity", "setting": "Leishmania infantum [18]", "result": 3.61}, {"measurement": "Activity", "setting": "Leishmania infantum [19]", "result": 1.87}, {"measurement": "Activity", "setting": "Leishmania infantum [20]", "result": 2.39}, {"measurement": "Activity", "setting": "Leishmania infantum [21]", "result": 29.4}, {"measurement": "Activity", "setting": "Leishmania infantum [22]", "result": 4.9}, {"measurement": "Activity", "setting": "Leishmania infantum [23]", "result": 4.42}, {"measurement": "Activity", "setting": "Leishmania infantum [24]", "result": 30.3}, {"measurement": "Activity", "setting": "Leishmania infantum [25]", "result": 28.5}, {"measurement": "Activity", "setting": "Leishmania infantum [26]", "result": 1.7}, {"measurement": "Activity", "setting": "Leishmania infantum [27]", "result": 4.2}, {"measurement": "Activity", "setting": "Leishmania infantum [28]", "result": 27.7}, {"measurement": "Activity", "setting": "Leishmania infantum [29]", "result": 4.69}, {"measurement": "Activity", "setting": "Leishmania infantum [30]", "result": "Active"}, {"measurement": "Activity", "setting": "Leishmania infantum [31]", "result": "Active"}, {"measurement": "Activity", "setting": "Leishmania infantum [32]", "result": 1.56}]}
